Source: ChEMBL document CHEMBL5226289, “Discovery of natural anti-inflammatory alkaloids: Potential leads for the drug discovery for the treatment of inflammation” (Eur J Med Chem, 2021)
In brackets after ≈: the same amount, converted by molar mass.

What was measured:
[1] = tested on: Rattus norvegicus; assay: Antiinflammatory activity in Wistar albino rat assessed as inhibition of CFA-induced paw edema at 10 mg/kg, po preadministered for 24 hrs followed by CFA administration and measured after 16 days; format: functional; conditions: 408 h, time 17 day
[2] = tested on: Rattus norvegicus; assay: Antiinflammatory activity in Wistar albino rat assessed as inhibition of carrageenan-induced paw edema at 20 mg/kg, po preadministered for 1 hrs followed by carrageenan administration and measured upto 10 hrs by Plethysmometer; format: functional; conditions: time <= 11 hrs
[3] = molecular target: T1, Prostaglandin G/H synthase 2 (Homo sapiens, UniProt P35354); assay: Inhibition of human recombinant COX-2 expressed in baculovirus infected Sf21 cells using arachidonic acid as substrate by spectrophotometric analysis
T1 sequence (P35354 whole entry): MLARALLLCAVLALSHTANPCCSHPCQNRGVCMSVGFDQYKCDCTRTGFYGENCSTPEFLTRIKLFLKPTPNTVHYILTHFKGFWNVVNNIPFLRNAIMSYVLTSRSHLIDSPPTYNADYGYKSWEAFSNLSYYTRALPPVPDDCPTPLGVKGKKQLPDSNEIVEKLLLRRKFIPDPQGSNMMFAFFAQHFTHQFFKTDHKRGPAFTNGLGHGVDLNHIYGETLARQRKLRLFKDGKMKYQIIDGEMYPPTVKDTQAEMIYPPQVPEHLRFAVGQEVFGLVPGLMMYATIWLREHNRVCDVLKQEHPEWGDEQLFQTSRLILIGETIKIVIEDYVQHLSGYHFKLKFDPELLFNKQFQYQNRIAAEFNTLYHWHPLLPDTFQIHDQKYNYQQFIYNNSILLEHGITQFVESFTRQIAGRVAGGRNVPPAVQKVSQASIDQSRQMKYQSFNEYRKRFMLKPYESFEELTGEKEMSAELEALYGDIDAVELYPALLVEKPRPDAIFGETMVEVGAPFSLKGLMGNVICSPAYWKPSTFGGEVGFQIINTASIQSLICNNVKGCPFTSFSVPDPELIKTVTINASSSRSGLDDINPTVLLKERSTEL

[4] = Inhibition of goat 5-LOX by spectrophotometric analysis; design: species or system Capra hircus

Work on `O=c1c2ccccc2nc2n1CCC2O` (centres undefined) yielded an inhibition in vivo at 10 mg/kg [1] of 63.9%.
In the case of `OC1CCN2Cc3ccccc3N=C12` (centres undefined), the inhibition in vivo at 20 mg/kg [2] is reported as 59.5%.
`CC[C@H](CCCC[C@@H]1/C=C\CN/C=C\C1)C[C@@H]1CCC(=O)ON1` showed an IC50 [3] of 2.5 mM and an IC50 [4] of 900 µg/mL (≈ 2810 µM).
